US12389911B2, “Benzimidazole compound or salt thereof, agricultural and horticultural insecticidal and acaricidal agent containing said compound, and method for using same” (NIHON NOHYAKU CO., LTD., priority 2019, dated 2025)

What follows are compounds tested on Two-spotted spider mite (Tetranychus urticae) (assay: Acaricidal action on two-spotted spider mite (kidney bean leaf disk spray)). Settings: 500 ppm, adult females, 25° C., two days after treatment.
Assay type: in vivo
Procedure: Acaricidal Action on Two-Spotted Spider Mite (Tetranychus urticae)
Leaf disk having a diameter of 2 cm was prepared by leaves of kidney bean, and the leaf disk was placed on the wetted filter paper. Adult hens of two-spotted spider mite were inoculated on the wetted filter paper, and then 50 ml of an agrochemical dispersion, prepared by diluting a formulation containing the benzimidazole compound represented by the general formula (1) of the present invention or salt thereof as an active ingredient to adjust each of the concentrations to 500 ppm, was sprayed on turntable uniformly. After the spraying, it was allowed to stand in a thermostatic chamber at 25° C. Two days after the treatment of an agrochemical dispersion, the dead mites were counted, the corrected mortality rate was calculated according to the formula shown below, and the acaricidal efficacy was evaluated according to the criteria of Test Example 2. This test was conducted in duplicate using 10 adult hens of two-spotted spider per plot. Corrected mortality(%)=(Number of dead mites in a non-treatment plot−Number of dead mites in a treatment plot)/(Number of dead mites in a non-treatment plot)×100 [Expression 4]

| SMILES | acaricidal efficacy (corrected mortality rate), activity level |
| --- | --- |
| CCCCCc1nn(-c2nc3ccccc3n2S(=O)(=O)CC)cc1C(=O)OC(C)(C)C [Compound 2-85] | D or higher |
| CCS(=O)(=O)n1c(-n2cc(C(=O)OC(C)(C)C)c(C=C(C)C)n2)nc2ccccc21 [Compound 2-86] | D or higher |
| CCS(=O)(=O)n1c(-n2cc(C(=O)OC(C)(C)C)c(CC(C)C)n2)nc2ccccc21 [Compound 2-87] | D or higher |
| CCS(=O)(=O)n1c(-n2cc(C(=O)OC(C)(C)C)c(C#Cc3ccccc3)n2)nc2ccccc21 [Compound 2-88] | D or higher |
| CCS(=O)(=O)n1c(-n2cc(C(=O)OC(C)(C)C)c(CCc3ccccc3)n2)nc2ccccc21 [Compound 2-89] | D or higher |
| CCS(=O)(=O)n1c(-n2cc(C(=O)OC(C)(C)C)c(C(F)(F)C(F)(F)F)n2)nc2ccccc21 [Compound 2-90] | D or higher |
| CCS(=O)(=O)n1c(-n2nc(COC(C)(C)C)c(C(=O)OC(C)(C)C)c2C)nc2ccccc21 [Compound 2-91] | D or higher |
| C#CCOc1nn(-c2nc3ccccc3n2S(=O)(=O)CC)cc1C(=O)OC(C)(C)C [Compound 2-92] | D or higher |
| CCS(=O)(=O)n1c(-n2cc(C(=O)OC(C(F)(F)F)C(F)(F)F)cn2)nc2ccccc21 [Compound 2-93] | D or higher |
| CCS(=O)(=O)n1c(-n2cc(C(=O)NCC(F)(F)F)c(C(C)(C)C)n2)nc2ccccc21 [Compound 2-94] | D or higher |
| CCS(=O)(=O)n1c(-n2cc(C(=O)NCC(F)(F)F)c(C(=O)NCC(F)(F)F)n2)nc2ccccc21 [Compound 2-95] | D or higher |
| CCS(=O)(=O)n1c(-n2cc(C(=O)NC3CC3)c(C(C)(C)C)n2)nc2ccccc21 [Compound 2-96] | D or higher |
| CCS(=O)(=O)n1c(-n2cc(C(=O)NC(C)(C)C)c(C(C)(C)C)n2)nc2ccccc21 [Compound 2-97] | D or higher |
| CCS(=O)(=O)n1c(-n2cc(C(=O)N(C)C(C)(C)C)c(C(=O)N(C)C(C)(C)C)n2)nc2ccccc21 [Compound 2-98] | D or higher |
| CCS(=O)(=O)n1c(-n2cc(C#N)c(C(C)(C)C)n2)nc2ccccc21 [Compound 2-99] | D or higher |
| CCS(=O)(=O)n1c(-n2cc(C#Cc3ccccc3)c(OCC(F)(F)F)n2)nc2ccccc21 [Compound 2-100] | D or higher |
| CCS(=O)(=O)n1c(-n2cc(CCc3ccccc3)c(OCC(F)(F)F)n2)nc2ccccc21 [Compound 2-101] | D or higher |
| CCS(=O)(=O)n1c(-n2cc(CCC(=O)OC(C)(C)C)c(OCC(F)(F)F)n2)nc2ccccc21 [Compound 2-102] | D or higher |
| CCS(=O)(=O)n1c(-n2ccc(OCCCC(=O)OC(C)(C)C)n2)nc2ccccc21 [Compound 2-103] | D or higher |
| CCS(=O)(=O)n1c(-n2cc(I)c(C(=O)OC(C)(C)C)n2)nc2ccccc21 [Compound 2-104] | D or higher |
| CCS(=O)(=O)n1c(-n2cc(C3CC3)c(C(=O)OC(C)(C)C)n2)nc2ccccc21 [Compound 2-105] | D or higher |
| CCS(=O)(=O)n1c(-n2cc(C#Cc3ccccc3)c(C(=O)OC(C)(C)C)n2)nc2ccccc21 [Compound 2-106] | D or higher |

| SMILES | acaricidal efficacy (corrected mortality rate), activity level |
| --- | --- |
| CCS(=O)(=O)n1c(-n2cc(CCc3ccccc3)c(C(=O)OC(C)(C)C)n2)nc2ccccc21 [Compound 2-107] | D or higher |
| CCS(=O)(=O)n1c(-n2cc(C#N)c(C(=O)OC(C)(C)C)n2)nc2ccccc21 [Compound 2-108] | D or higher |
| CCS(=O)(=O)n1c(-n2cc(CCc3ccccc3)c(C#N)n2)nc2ccccc21 [Compound 2-109] | D or higher |
| C#Cc1cn(-c2nc3ccccc3n2S(=O)(=O)CC)nc1C(F)(F)F [Compound 2-110] | D or higher |
| CCS(=O)(=O)n1c(-n2cc(C#N)c(C(F)(F)C(F)(F)F)n2)nc2ccccc21 [Compound 2-111] | D or higher |
| CCS(=O)(=O)n1c(-n2cc(/C=C/C(=O)OC(C(F)(F)F)C(F)(F)F)c(C(F)(F)F)n2)nc2ccccc21 [Compound 2-112] | D or higher |
| CCS(=O)(=O)n1c(-n2cc(/C=C/C(=O)OCC(C)(C)C)c(C(F)(F)F)n2)nc2ccccc21 [Compound 2-113] | D or higher |
| CCS(=O)(=O)n1c(-n2cc(/C=C/C(=O)OCc3ccc(C(C)(C)C)cc3)c(C(F)(F)F)n2)nc2ccccc21 [Compound 2-114] | D or higher |
| CCS(=O)(=O)n1c(-n2cc(/C=C/C(=O)OCc3ccc(C(F)(F)F)cc3)c(C(F)(F)F)n2)nc2ccccc21 [Compound 2-115] | D or higher |
| CCS(=O)(=O)n1c(-n2cc(/C=C/C(=O)OCC34CC5CC(CC(C5)C3)C4)c(C(F)(F)F)n2)nc2ccccc21 [Compound 2-116] | D or higher |
| CCS(=O)(=O)n1c(-n2cc(/C=C/C(=O)NCC(F)(F)F)c(C(F)(F)F)n2)nc2ccccc21 [Compound 2-117] | D or higher |
| CCS(=O)(=O)n1c(-n2cc(C#Cc3ccccn3)c(C(F)(F)F)n2)nc2ccccc21 [Compound 2-118] | D or higher |
| CCS(=O)(=O)n1c(-n2cc(C(C)=O)c(C)n2)nc2ccccc21 [Compound 2-119] | D or higher |
| CCS(=O)(=O)n1c(-n2cc(S(=O)(=O)N(C)C)c(C(F)(F)F)n2)nc2ccccc21 [Compound 2-120] | D or higher |
| CCS(=O)(=O)n1c(-n2cc(SCc3ccc(C(C)(C)C)cc3)c(C(F)(F)F)n2)nc2ccccc21 [Compound 2-121] | D or higher |
| CCCC#Cc1cn(-c2nc3ccccc3n2S(=O)(=O)CC)nc1C(F)(F)F [Compound 2-122] | D or higher |
| CCS(=O)(=O)n1c(-n2cc(C#CC3CC3)c(C(F)(F)F)n2)nc2ccccc21 [Compound 2-123] | D or higher |
| CCS(=O)(=O)n1c(-n2cc(C#CC(C)(C)C)c(C(F)(F)F)n2)nc2ccccc21 [Compound 2-124] | D or higher |
| CCCCCc1cn(-c2nc3ccccc3n2S(=O)(=O)CC)nc1C(F)(F)F [Compound 2-125] | D or higher |
| CCS(=O)(=O)n1c(-n2cc(CCC3CC3)c(C(F)(F)F)n2)nc2ccccc21 [Compound 2-126] | D or higher |
| CCS(=O)(=O)n1c(-n2cc(CCC(C)(C)C)c(C(F)(F)F)n2)nc2ccccc21 [Compound 2-127] | D or higher |
